Test results taken from patent US12491226B2, “Mastic-derived natural protectants” (BARENTZ NORTH AMERICA, LLC, priority 2018, dated 2025).

How the values were obtained:
[1] = test system: mixture of bacteria; assay: CTFA Preservative Challenge Test on shampoo, mixed bacteria (with Kull synergism calculation); assay type: cell-based; details: for Mixed Bacteria Day 14 Count / Mixed Bacteria Day 7 Count: shampoo containing sample, initial count 4×10^6 cfu/mL; for Mixed Bacteria Day 14 Count: surviving organisms on day 14; for Mixed Bacteria Day 14 kill reduction / Mixed Bacteria Day 7 kill reduction: shampoo, versus initial count 4×10^6 cfu/mL; for Mixed Bacteria Day 7 Count: surviving organisms on day 7
Experimental: (§1) The CTFA Preservative Challenge Test was performed on a shampoo containing the samples below against a mixture of fungi (C. albicans (ATCC #10231) and A. brasiliensis (ATCC #16404)) having an initial count of 7.9×10^5 cfu/mL or a mixture of bacteria having an initial count of 4×10^6 cfu/mL. The shampoos inoculated with bacteria were allowed to stand for 14 days and the shampoos inoculated with fungi were allowed to stand for 7 days. The samples were evaluated for surviving organisms on day 7 for fungi-innoculated shampoos and days 7 and 14 for bacteria-innoculated shampoos.
From the table, synergism for the combinations above against mixed bacteria in shampoo was calculated by the method described in C. E. Kull et al., “Mixtures of Quaternary Ammonium Compounds and Long-chain Fatty Acids as Antifungal Agents”, Applied Microbiology, 9:538-541 (1961). The synergism value (QA/Qa+QB/Qb) was determined. […] Qa is the concentration of the first component alone (in percent by weight) required to yield 100% retardation of the bacteria. Qb is the concentration of the second component alone (in percent by weight) required to yield 100% retardation of the bacteria. When the value of (QA/Qa+QB/Qb) is less than one, the mixture is synergistic. Values for (QA/Qa+QB/Qb) of 1 and greater represent an additive effect and an antagonistic effect, respectively. Here, (QA/Qa+QB/Qb) is (([…])+([…]) or <0.75. Accordingly, the mixture of 0.2% mastic oil and 0.05% piroctine olamine is synergistic. The mixture of 2% mastic water and 2% ELA, the mixture of 2% mastic water and 0.5% sodium p-anisate, and the mixture of 4% mastic water and 1% quinic acid are also synergistic.

[2] = test system: mixture of fungi (C. albicans (ATCC #10231) and A. brasiliensis (ATCC #16404)); assay: CTFA Preservative Challenge Test on shampoo, mixed fungi; assay type: cell-based; details: for Mixed Fungi Day 7 Count: shampoo containing sample, initial count 7.9×10^5 cfu/mL, surviving organisms on day 7; for Mixed Fungi Day 7 kill reduction: shampoo, versus initial count 7.9×10^5 cfu/mL
Experimental: as §1

Structure (SMILES)	Mixed Bacteria Day 14 Count [1]	Mixed Bacteria Day 14 kill reduction [1]	Mixed Fungi Day 7 Count [2]	Mixed Fungi Day 7 kill reduction [2]	Mixed Bacteria Day 7 Count [1]	Mixed Bacteria Day 7 kill reduction [1]
CCCCCCCCCCCC(=O)N[C@@H](CCCN=C(N)N)C(=O)OCC.Cl [5% ELA HCl, ethyl lauroyl arginate HCl]	1.3 × 10^2 cfu/mL	(<99.9% kill	–	–	–	–
O=C(O)[C@]1(O)C[C@@H](O)[C@@H](O)[C@H](O)C1 [2.5% Quinic acid, quinic acid]	–	–	1.4 × 10^5 cfu/mL	(<90% kill	–	–
Cc1cc(CC(C)CC(C)(C)C)n(O)c(=O)c1.NCCO (stereo not drawn) [0.1% Piroctine olamine, Piroctine olamine]	1.3 × 10^5 cfu/mL	(<97% kill	5.9 × 10^4 cfu/mL	(<90% kill	1.2 × 10^5 cfu/mL	(<97% kill
COc1ccc(C(=O)[O-])cc1.[Na+] [1% Sodium p-anisate, sodium p-anisate]	–	–	–	–	2.3 × 10^4 cfu/mL	(<99% kill
